Values quoted from earlier work, collected in patent US8202842B2, “Inhibition of cholera toxins by galatooligosaccharides (GOS)” (priority 2006, dated 2012).

Columns and labels:
[1] = tested on: uropathogenic Escherichia coli; details: soluble, monovalent
cholera toxin = cholera toxin (Vibrio cholerae serotype O1, UniProt P01556); details: rabbit, in vivo
Sequence of cholera toxin (P01556 whole entry, looked up): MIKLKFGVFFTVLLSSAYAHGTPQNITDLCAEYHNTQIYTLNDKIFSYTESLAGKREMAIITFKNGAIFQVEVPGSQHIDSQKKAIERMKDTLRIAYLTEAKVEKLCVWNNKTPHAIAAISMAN

| Molecule | Interference with attachment and colonization of uropathogenic Escherichia coli [1] | Inhibition of fluid accumulation induced by cholera toxin (cholera toxin) |
| --- | --- | --- |
| OC[C@H]1O[C@H](O[C@@H]2[C@H](O)[C@@H](O)[C@H](O[C@H]3[C@H](O)[C@@H](O)C(O)O[C@@H]3CO)O[C@@H]2CO)[C@H](O)[C@@H](O)[C@H]1O (some centres unmarked) [globotriose] | interfere with attachment and colonization | – |
| 3-sialyllactose | – | inhibitor of fluid accumulation |
